# Experimental data from PubChem BioAssay AID624132 (Broad Institute, 2012).
# Results filed as inconclusive are left out.
# Tested on: Clone20 osteoblast Shn3 3'UTR firefly luciferase, 24 h
# Test: Shn3 3'UTR reporter inhibitors, dose response, cell-based, Clone20 osteoblasts, firefly luciferase, cherry-picked (AID 624132)
row,Structure (SMILES),AC50 [nM]
1,CC(=O)OC1CC2OC3C=C(C)CCC3(C)C1(C)C21CO1 (stereo not drawn),829
2,CC1=CC2OC3CC4OC(=O)C=CC=CC(C(C)O)OCC(O)C5(C)OC5C(=O)OCC2(CC1O)C4(C)C31CO1 (stereo not drawn),< 260
3,CC1=CC2OC3CC4OC(=O)C=CC=CC(C(C)O)OCC(O)C(C)CC(=O)OCC2(CC1O)C4(C)C31CO1 (stereo not drawn),< 260
4,CC(=O)OC[C@]12CCC(C)=C[C@H]1O[C@@H]1[C@H](O)[C@@H](OC(C)=O)[C@@]2(C)[C@]12CO2,< 260
5,C[C@H]1[C@@H](OS(=O)(=O)O)C[C@@H]2C[C@H]([C@@H](O)c3cc(=O)[nH]c(=O)[nH]3)NC3=NC[C@H]1N32,1320
6,CC(=O)OCC12CC(OC(=O)CC(C)C)C(C)=CC1OC1C(O)C(OC(C)=O)C2(C)C12CO2 (stereo not drawn),< 260
7,CC1=CC2OC3CC4OC(=O)C=CC=CC(=O)OCCC(C)C(O)C(=O)OCC2(CC1O)C4(C)C31CO1 (stereo not drawn),< 260
8,CC(=O)OC1C(=O)OCC23CCC4(C)OC4C2OC2CC(OC(=O)C=CC=CC(=O)OCCC1C)C3(C)C21CO1 (stereo not drawn),< 260
